Test results: patent publication US8735406B2, “8-oxodihydropurine derivative” (Dainippon Sumitomo Pharma Co., Ltd., priority 2009, dated 2014)
Like-named read-outs stand apart in the source and are kept apart here.

Biological target: T1, FAAH (Rattus norvegicus, UniProt P97612)
T1 construct: Preparation of Rat Brain Membranes Preparations (FAAH Enzyme Solution); from tissue; host or cells: rat cerebrum (brain membrane preparation)
T1 sequence (P97612 1-579): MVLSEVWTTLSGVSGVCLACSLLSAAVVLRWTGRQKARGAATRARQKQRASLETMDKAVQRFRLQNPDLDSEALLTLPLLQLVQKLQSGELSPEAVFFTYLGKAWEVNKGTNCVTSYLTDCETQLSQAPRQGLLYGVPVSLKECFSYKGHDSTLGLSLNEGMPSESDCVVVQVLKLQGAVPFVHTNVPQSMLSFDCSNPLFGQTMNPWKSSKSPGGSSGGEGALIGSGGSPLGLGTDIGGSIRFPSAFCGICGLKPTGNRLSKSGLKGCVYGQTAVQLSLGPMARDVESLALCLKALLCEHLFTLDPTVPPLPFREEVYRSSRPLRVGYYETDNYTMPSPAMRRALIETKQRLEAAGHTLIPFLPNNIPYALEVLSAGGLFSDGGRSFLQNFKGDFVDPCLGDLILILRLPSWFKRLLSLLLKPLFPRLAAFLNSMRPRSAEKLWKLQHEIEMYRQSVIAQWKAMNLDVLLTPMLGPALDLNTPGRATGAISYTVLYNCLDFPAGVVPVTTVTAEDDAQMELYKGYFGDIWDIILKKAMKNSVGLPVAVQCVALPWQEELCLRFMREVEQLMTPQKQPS
Assay: Determination of FAAH inhibitory activity in rat (rat brain membrane preparations, [3H]-anandamide hydrolysis)
Assay type: biochemical
Conditions: for IC50: test substance 0.1 nM to 1 μM; for inhibition at 0.1 µM: read-out: FAAH Inhibition, Inhibition Rate at 100 nM
Description: Determination of FAAH Inhibitory Activity in Rat
The preparation of rat brain membranes preparations and the determination of FAAH inhibitory activity were carried out according to the Jonsson et al. method [Br. J. Pharmacol., 133, 1263 (2001)].
(1) Preparation of Rat Brain Membranes Preparations (FAAH Enzyme Solution)
The cerebrum was extracted from rats and was freeze-stored at −80° C. To the frozen cerebrum was added 4° C. enzyme homogenization buffer (20 mM HEPES-buffer pH 7.0, 1 mM MgCl2) and the mixture was homogenized using a homogenizer in ice and the homogenates were centrifuged (36,000×g for 20 minutes). After repeating operations of homogenization and centrifugation, the tissue pellets were re-suspended with 4° C. enzyme homogenization buffer. The re-suspensions were incubated at 37° C. for 15 minutes and were centrifuged (36,000×g for 20 minutes), and the resulting tissue membranes were then re-suspended with enzyme solution preparation buffer (50 mM Tris-HCl buffer pH 7.4, 1 mM EDTA, 3 mM MgCl2). The protein concentration in the resulting membrane preparations were determined according to a colorimetry method (BCA Protein Assay: Pierce Inc.) and the preparations were freeze-stored at −80° C. until used for assay.
(2) Screening of Substances for Inhibiting FAAH Activity
To the above membrane preparations (final concentration 100 μg/mL) were added a solution of test substances in DMSO (final concentration in DMSO 1%) and an assay buffer (for final preparation; 22 mM Tris-HCl (pH 7.6), 1.4 mM EDTA, 1.5% BSA, 0.6 mM MgCl2) and the resulting mixtures were preincubated at 37° C. for 10 minutes. Thereto was added a substrate solution (for final preparation; 2 nM [^3H]-Anandamide (American Radiolabeled Chemicals Inc.)+2 μM Anandamide (Sigma-Aldrich Co.)) (final assay volume of 200 μL) and the resulting mixtures were incubated at 37° C. for 10 minutes. Here in control experiment, DMSO was added instead of the solution of test substance in DMSO. Also in blank experiment, DMSO was added instead of the solution of test substance in DMSO and an enzyme solution preparation buffer was also added instead of the membrane preparations. After the incubation, thereto was added a 400 μL ice-cooled solution of chloroform and methanol (1:1 ratio by volume) and the resulting mixtures were stirred. An ethanolamine (ethanolamine-1-[^3H]) as a decomposed product was separated into an upper layer (water/methanol layer) by centrifugation (1,000×g for 10 minutes). The upper layer 200 μL was transferred into 96 well Deepwell Luma Plate-96 (PerkinElmer Inc.) and the radioactivity was measured by microplate scintillation counter (TopCount NXT™: […].). The substances showing a lower measured value compared to those of control were selected as the compound having a FAAH inhibitory activity.
(3) Determination of IC50 Value
The test substances were prepared such that the final concentration of the compounds is within the range of 0.1 nM to 1 μM and were then examined on the effect on FAAH activity according to the above-mentioned protocol.

[1] = rat brain membrane preparations, read-out: FAAH Inhibition IC50
[2] = rat brain membrane preparations, 100 nM test substance

IC50 [1] | inhibition at 0.1 µM [2] | SMILES | inhibition at 0.1 µM | IC50 (FAAH Inhibition IC50, rat brain membrane preparations)
– | – | COc1cccc(-c2ncc3c(n2)n(C)c(=O)n3C(=O)N(C)CCc2cccc(Cl)c2)c1 [Example 76, N-[2-(3-Chlorophenyl)ethyl]-2-(3-methoxyphenyl)-N,9-dimethyl-8-oxo-8,9-dihydro-7H-purine-7-carboxamide] | 102% | 3 nM
3 nM | 116% | COc1cccc(-c2ncc3c(n2)n(C)c(=O)n3C(=O)N(C)CCOc2ccc(Cl)cc2)c1 [Example 77, N-[2-(4-Chlorophenoxy)ethyl]-2-(3-methoxyphenyl)-N,9-dimethyl-8-oxo-8,9-dihydro-7H-purine-7-carboxamide] | – | –
10 nM | 108% | COc1cccc(-c2ncc3c(n2)n(C)c(=O)n3C(=O)N(C)Cc2ccc(Cl)cc2)c1 [Example 78, N-(4-Chlorobenzyl)-2-(3-methoxyphenyl)-N,9-dimethyl-8-oxo-8,9-dihydro-7H-purine-7-carboxamide] | – | –
51 nM | 87% | COc1cccc(-c2ncc3c(n2)n(C)c(=O)n3C(=O)N(C)Cc2cccc(Cl)c2)c1 [Example 79, N-(3-Chlorobenzyl)-2-(3-methoxyphenyl)-N,9-dimethyl-8-oxo-8,9-dihydro-7H-purine-7-carboxamide] | – | –
44 nM | 92% | COc1ccc(CN(C)C(=O)n2c(=O)n(C)c3nc(-c4cccc(OC)c4)ncc32)cc1 [Example 80, N-(4-Methoxybenzyl)-2-(3-methoxyphenyl)-N,9-dimethyl-8-oxo-8,9-dihydro-7H-purine-7-carboxamide] | – | –
11 nM | 94% | COc1cccc(-c2ncc3c(n2)n(C)c(=O)n3C(=O)N(C)Cc2ccc(C(F)(F)F)cc2)c1 [Example 81, 2-(3-Methoxyphenyl)-N,9-dimethyl-8-oxo-N-[4-(trifluoromethyl)benzyl]-8,9-dihydro-7H-purine-7-carboxamide] | – | –
36 nM | 90% | COc1cccc(-c2ncc3c(n2)n(C)c(=O)n3C(=O)N(C)Cc2cccc(C(F)(F)F)c2)c1 [Example 82, 2-(3-Methoxyphenyl)-N,9-dimethyl-8-oxo-N-[3-(trifluoromethyl)benzyl]-8,9-dihydro-7H-purine-7-carboxamide] | – | –
25 nM | 93% | COc1cccc(-c2ncc3c(n2)n(C)c(=O)n3C(=O)N(C)Cc2ccc(OC(F)(F)F)cc2)c1 [Example 83, 2-(3-Methoxyphenyl)-N,9-dimethyl-8-oxo-N-[4-(trifluoromethoxy)benzyl]-8,9-dihydro-7H-purine-7-carboxamide] | – | –
43 nM | 93% | COc1cccc(-c2ncc3c(n2)n(C)c(=O)n3C(=O)N(C)Cc2ccccc2)c1 [Example 88, N-Benzyl-2-(3-methoxyphenyl)-N,9-dimethyl-8-oxo-8,9-dihydro-7H-purine-7-carboxamide] | – | –
2 nM | 105% | COc1cccc(-c2ncc3c(n2)n(C)c(=O)n3C(=O)N(C)CCOc2cccc(Cl)c2)c1 [Example 90, N-[2-(3-Chlorophenoxy)ethyl]-2-(3-methoxyphenyl)-N,9-dimethyl-8-oxo-8,9-dihydro-7H-purine-7-carboxamide] | – | –
1 nM | 103% | COc1cccc(-c2ncc3c(n2)n(C)c(=O)n3C(=O)N(C)CCOc2ccc(F)cc2)c1 [Example 91, N-[2-(4-Fluorophenoxy)ethyl]-2-(3-methoxyphenyl)-N,9-dimethyl-8-oxo-8,9-dihydro-7H-purine-7-carboxamide] | – | –
4 nM | 103% | COc1cccc(-c2ncc3c(n2)n(C)c(=O)n3C(=O)N(C)CCc2ccc(C(F)(F)F)cc2)c1 [Example 92, 2-(3-Methoxyphenyl)-N,9-dimethyl-8-oxo-N-{2-[4-(trifluoromethyl)phenyl]ethyl}-8,9-dihydro-7H-purine-7-carboxamide] | – | –
7 nM | 101% | COc1cccc(-c2ncc3c(n2)n(C)c(=O)n3C(=O)N2CC=C(/C=C/c3ccc(Cl)cc3)CC2)c1 [Example 94, 7-({4-[(E)-2-(4-Chlorophenyl)ethenyl]-3,6-dihydropyridin-1(2H)-yl}carbonyl)-2-(3-methoxyphenyl)-9-methyl-7,9-dihydro-8H-purine-8-one] | – | –
3 nM | 101% | COc1cccc(-c2ncc3c(n2)n(C)c(=O)n3C(=O)N2CC=C(/C=C/c3ccc(F)cc3)CC2)c1 [Example 95, 7-({4-[(E)-2-(4-Fluorophenyl)ethenyl]-3,6-dihydropyridin-1(2H)-yl}carbonyl)-2-(3-methoxyphenyl)-9-methyl-7,9-dihydro-8H-purine-8-one] | – | –

SMILES | IC50 [1] | inhibition at 0.1 µM [2] | inhibition at 0.1 µM | IC50 (FAAH Inhibition IC50, rat brain membrane preparations)
COc1cccc(-c2ncc3c(n2)n(C)c(=O)n3C(=O)N(C)CCc2cccc(F)c2)c1 [Example 75, N-[2-(3-Fluorophenyl)ethyl]-2-(3-methoxyphenyl)-N,9-dimethyl-8-oxo-8,9-dihydro-7H-purine-7-carboxamide] | < 1 nM | – | 103% | –
COc1cccc(-c2ncc3c(n2)n(C)c(=O)n3C(=O)N2CCN(Cc3ccc(F)cc3)CC2)c1 [Example 84, 7-{[4-(4-Fluorobenzyl)piperazin-1-yl]carbonyl}-2-(3-methoxyphenyl)-9-methyl-7,9-dihydro-8H-purine-8-one] | 13 nM | – | 98% | –
COc1cccc(-c2ncc3c(n2)n(C)c(=O)n3C(=O)N2CCN(Cc3cccc(F)c3)CC2)c1 [Example 85, 7-{[4-(3-Fluorobenzyl)piperazin-1-yl]carbonyl}-2-(3-methoxyphenyl)-9-methyl-7,9-dihydro-8H-purine-8-one] | 31 nM | – | 93% | –
COc1cccc(-c2ncc3c(n2)n(C)c(=O)n3C(=O)N2CCN(Cc3ccc(Cl)cc3)CC2)c1 [Example 86, 7-{[4-(4-Chlorobenzyl)piperazin-1-yl]carbonyl}-2-(3-methoxyphenyl)-9-methyl-7,9-dihydro-8H-purine-8-one] | 22 nM | – | 96% | –
COc1cccc(-c2ncc3c(n2)n(C)c(=O)n3C(=O)N2CCN(Cc3cccc(Cl)c3)CC2)c1 [Example 87, 7-{[4-(3-Chlorobenzyl)piperazin-1-yl]carbonyl}-2-(3-methoxyphenyl)-9-methyl-7,9-dihydro-8H-purine-8-one] | 10 nM | – | 99% | –
COc1cccc(-c2ncc3c(n2)n(C)c(=O)n3C(=O)N2CCN(Cc3ccc(C(F)(F)F)cc3)CC2)c1 [Example 89, 2-(3-Methoxyphenyl)-9-methyl-7-({4-[4-(trifluoromethyl)benzyl]piperazin-1-yl}carbonyl)-7,9-dihydro-8H-purine-8-one] | 44 nM | – | 92% | –
COc1ccc(CCN(C)C(=O)n2c(=O)n(C)c3nc(-c4cccc(OC)c4)ncc32)cc1 [Example 93, 2-(3-Methoxyphenyl)-N-[2-(4-methoxyphenyl)ethyl]-N,9-dimethyl-8-oxo-8,9-dihydro-7H-purine-7-carboxamide] | 5 nM | – | 100% | –
